The text below walks through data of PMC11301271 (FEBS Open Bio, 2024).

The structures appear in SMILES notation. Several values for one entry are separate records, joined by “and”; a condition that tells them apart may be missing. Equal entries are not always repeated. Where two headings read alike, the source gives them in different places.

In experiment [1] the target is T1, human MK (Homo sapiens, UniProt Q03426).
T1 construct: His6 (N); made in house; host or cells: E. coli BL21(DE3)
As to the kind of experiment: MK coupled enzyme assay (pyruvate kinase/lactate dehydrogenase): inhibitor screening and IC50. The conditions noted are these: for IC50: read-out: IC50 for MK inhibition; for MK inhibition, result in words: screening, 10 μM compound. The experiment is classed as biochemical. How it is done:
A pET‐15b plasmid encoding human MK (UniProt Q03426) with an N‐terminal His6‐tag was transformed into E. coli BL21(DE3) cells (New England Biolabs, Whitby, ON, Canada). The cells were cultured in LB at 37 °C until the OD600 of the culture reached 0.6. Expression of the recombinant enzyme was induced by 0.1 mM IPTG for 6 h at 37 °C. The cells were lysed by sonication, and the lysate was subjected to Ni‐affinity chromatography (HisTrap HP, Cytiva, Vancouver, BC, Canada) followed by size exclusion chromatography (HiLoad Superdex 200 PG, Cytiva) (Fig. 2A). […] The purified enzyme was flash‐frozen in liquid nitrogen and stored at −80 °C. The final sample buffer (i.e., the size exclusion buffer) consisted of 10 mM HEPES (pH 7.5), 500 mM NaCl, 2 mM β‐mercaptoethanol, and 5% glycerol.
(§1) MK activity was measured by using a coupled enzyme assay as previously described. The reporter enzymes, pyruvate kinase and lactate dehydrogenase, were purchased as a pre‐mixed buffered solution from MilliporeSigma. […] All reactions were carried out at 32 °C in triplicate unless otherwise noted. Each reaction was initiated by adding 10 μL of MK (50 μg mL^−1; diluted from the −80 °C stock in 50 mM HEPES, pH 7.5) to 990 μL of the reaction buffer containing all the other components except MK (pre‐incubated at 32 °C for 5 min) and immediately transferring to a 1 mL disposable polystyrene cuvette (Fisherbrand) pre‐placed in the temperature‐controlled cell holder of an Agilent 8453 UV–visible Spectroscopy System. Blank reactions were added with 10 μL of 50 mM HEPES (pH 7.5) only. Reaction progress was continuously monitored by measuring the A340 for 1 min. To convert the measured absorbance to product concentration, an absorption coefficient of NADH determined from a calibration curve (5.4107 cm^−1 mM ^−1) was used. Initial rate experiments were conducted by varying the concentration of one substrate while keeping the other at a saturating concentration of 5 mM. Kinetic parameters were determined by fitting the rate data to the Michaelis–Menten model (Eqn 1), vi=VmaxS/Km+S, where [S] represents the concentration of the varied substrate. Data analysis was performed with […] PRISM software (GraphPad Software, Boston, MA, USA).
To prepare master stock solutions, the phosphonate compounds were dissolved in Milli‐Q water to a concentration of 20 mM, either as monosodium salts (monophosphonate compounds) or as trisodium salts (bisphosphonate compounds). Their effects on MK activity were evaluated by using the coupled enzyme assay described above. Each compound was tested at two concentrations: 1 and 10 μM.
To determine the IC 50, a more refined inhibition response across a broader range of inhibitor concentrations was measured. Typically, nine different inhibitor concentrations spanning a 10 000‐fold concentration range were used. Dose–response curves were generated by fitting the inhibition data to the following three‐parameter dose–response equation (Eqn 2), where Max and Min denote the maximum and minimum response, respectively: Response=Min+Max−Min/1+I/IC50.

The target in experiment [2] is T2, FPPS (Homo sapiens, UniProt P14324).
T2 sequence (P14324 1-419): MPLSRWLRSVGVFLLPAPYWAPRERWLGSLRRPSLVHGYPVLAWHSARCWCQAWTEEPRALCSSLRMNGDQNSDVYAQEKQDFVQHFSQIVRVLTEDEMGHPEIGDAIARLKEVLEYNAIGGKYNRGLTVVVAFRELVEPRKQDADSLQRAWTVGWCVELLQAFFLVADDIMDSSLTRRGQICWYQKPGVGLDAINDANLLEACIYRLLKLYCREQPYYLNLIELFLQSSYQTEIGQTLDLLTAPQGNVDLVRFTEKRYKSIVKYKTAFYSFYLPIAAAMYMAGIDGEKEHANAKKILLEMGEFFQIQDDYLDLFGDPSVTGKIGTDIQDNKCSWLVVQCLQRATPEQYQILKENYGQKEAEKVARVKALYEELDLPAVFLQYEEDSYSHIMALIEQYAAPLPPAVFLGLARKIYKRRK
To be noted: read-out: Kd, binding affinity of FPP for FPPS; ref [21]; cited from earlier work.

The target of experiment [3] is T1, human MK. As to the kind of experiment: Steady-state kinetics of human MK (Michaelis-Menten, substrates). The experiment is classed as biochemical. To be noted: one substrate varied, the other fixed at 5 mM; 32 °C; read-out: Km of recombinant MK for the substrate.
Experiment [4] addresses T2, FPPS. Briefly: Inhibition of FPPS. The experiment is classed as biochemical. The conditions noted are these: read-out: inhibition of FPPS at 10 μM; 10 μM compound; unpublished data.
The target of experiment [5] is T1, human MK. Briefly: Mode of inhibition and Ki determination, initial rate experiments with MK. The experiment is classed as biochemical. To be noted: for Ki' (ATP-bound enzyme), mixed inhibition model with respect to ATP: ATP varied 0.05-1 mM, MVA 5 mM; for Ki', uncompetitive inhibition model with respect to MVA: MVA varied 0.01-0.2 mM, ATP 5 mM. The protocol: as §1
In all experiments, one substrate was added at a constant concentration of 5 mM. […] Each inhibitor was tested at four different concentrations ranging from 0 to 200 nM. Data analysis was performed with […] PRISM software. The initial rates were fitted to steady‐state equations describing competitive inhibition model (Eqn 3), vi=VmaxS/Km1+I/Ki+S, noncompetitive inhibition model (Eqn 4), vi=VmaxS/1+I/Ki/Km+S, uncompetitive inhibition model (Eqn 5), vi=VmaxS/1+I/Ki^′/Km/1+I/Ki^′+S, and mixed inhibition model (Eqn 6), vi=VmaxS/1+I/Ki^′/Km1+I/Ki/1+I/Ki^′+S, where [S] represents the concentration of the varied substrate. The selection of the most appropriate models was determined through the extra sum‐of‐squares F test as implemented in the software.

Experiment [6] has as its target T1, human MK. Also noted: method as in PMID 9325256, PMID 18302342. To be noted: ref [19], [20]; read-out: Km of MK for the substrate, previously reported; cited from earlier work.

T1 sequence (Q03426 whole entry): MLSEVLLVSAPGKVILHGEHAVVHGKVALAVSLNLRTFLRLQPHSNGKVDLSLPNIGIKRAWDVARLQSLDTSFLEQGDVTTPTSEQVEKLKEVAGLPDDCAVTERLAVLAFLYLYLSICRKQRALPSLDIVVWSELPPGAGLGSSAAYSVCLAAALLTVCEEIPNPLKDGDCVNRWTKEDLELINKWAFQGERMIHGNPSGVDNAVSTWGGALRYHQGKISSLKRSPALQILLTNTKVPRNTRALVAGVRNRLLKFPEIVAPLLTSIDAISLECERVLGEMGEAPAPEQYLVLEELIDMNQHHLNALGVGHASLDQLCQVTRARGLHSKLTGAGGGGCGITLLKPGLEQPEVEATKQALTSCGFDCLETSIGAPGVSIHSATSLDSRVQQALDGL

As for `CC(C)=CCC/C(C)=C/CC/C(C)=C/CO[P@@](=O)(O)OP(=O)(O)O` (stereo in doubt) [FPP, farnesyl pyrophosphate, reference compound], the IC50 in experiment [1] amounted to 12 nM. Moreover, the Kd in experiment [2] is 5000 to 6000 nM. For `Nc1ncnc2c1ncn2[C@@H]1O[C@H](COP(=O)(O)OP(=O)(O)OP(=O)(O)O)[C@@H](O)[C@H]1O` [ATP], the Km in experiment [3] was 61 µM.

For `O=P(O)(O)CNc1ncnc2sccc12` [Compound 1], the “MK inhibition, result in words” value in experiment [1] is on record as “Inactive at 10 μM”. For `COc1cc(C)c(Cl)cc1-c1cc2c(NC(c3ccccc3)P(=O)(O)O)ncnc2s1` (stereo not drawn) [Compound 2], the IC50 in experiment [1] is 1900 nM. On the same count and under the same terms, as for `Cc1ccc(-c2cc3c(NC(Cc4ccccc4)P(=O)(O)O)ncnc3s2)cc1Cl` (stereo not drawn) [Compound 6], the figure is 2500 nM. On the same count and under the same terms, as for `Cc1ccc(-c2cc3c(NC(Cc4cccc(F)c4)P(=O)(O)O)ncnc3s2)cc1OCC(C)C` (stereo not drawn) [Compound 9, (2‐(3‐Fluorophenyl)‐1‐((6‐(3‐isobutoxy‐4‐methylphenyl)thieno[2,3‐d]pyrimidin‐4‐yl)amino)ethyl)phosphonic acid], the figure is 1000 nM. On to `Cc1ccc(-c2cc3c(NC(Cc4ccccc4)P(=O)(O)O)ncnc3s2)cc1OC1CC1` (stereo not drawn) [Compound 10, (1‐((6‐(3‐Cyclopropoxy‐4‐methylphenyl)thieno[2,3‐d]pyrimidin‐4‐yl)amino)‐2‐phenylethyl)phosphonic acid], for which the IC50 in experiment [1] was determined as 1600 nM. `O=P(O)(O)C(Nc1ncnc2sc(-c3ccc(C(F)(F)F)cc3)cc12)c1ccccc1` (stereo not drawn) [Compound 11, (phenyl((6‐(4‐(trifluoromethyl)phenyl)thieno[2,3‐d]pyrimidin‐4‐yl)amino)methyl)phosphonic acid]: the inhibition at 10 µM in experiment [4] was below 50%. Moreover, the IC50 in experiment [1] was 42 nM. In experiment [5], affinity was put at a Ki of 22 nM; the “Ki' (ATP-bound enzyme), mixed inhibition model with respect to ATP” value is reported as 380 nM; the “Ki', uncompetitive inhibition model with respect to MVA” value was determined as 140 nM. Moreover, the “Ki'/Ki ratio” value in experiment [5] (ATP as varied substrate, mixed inhibition model) was ~ 17. In the case of `O=P(O)(O)C(Nc1ncnc2sc(-c3ccc(F)cc3)cc12)c1ccccc1` (stereo not drawn) [Compound 12, (((6‐(4‐fluorophenyl)thieno[2,3‐d]pyrimidin‐4‐yl)amino)(phenyl)methyl)phosphonic acid], in experiment [1], the IC50 came to 46 nM. The same measure, in the same setting: as for `COc1cccc(OC)c1-c1cc2c(NC(c3ccccc3)P(=O)(O)O)ncnc2s1` (stereo not drawn) [Compound 13, (((6‐(2,6‐dimethoxyphenyl)thieno[2,3‐d]pyrimidin‐4‐yl)amino)(phenyl)methyl)phosphonic acid], the figure is 3300 nM; as for `O=P(O)(O)C(Nc1ncnc2sc(-c3cccc(C(F)(F)F)c3)cc12)c1ccccc1` (stereo not drawn) [Compound 14, (phenyl((6‐(3‐(trifluoromethyl)phenyl)thieno[2,3‐d]pyrimidin‐4‐yl)amino)methyl)phosphonic acid], 120 nM. On the same count and under the same terms, as for `COc1cc(C)c(F)cc1-c1cc2c(NC(c3ccccc3)P(=O)(O)O)ncnc2s1` (stereo not drawn) [Compound 15], the figure is 2300 nM. For `Cn1cc(CCP(=O)(O)O)c2cc(-c3ccc(C(F)(F)F)cc3)ccc21` [Compound 16, 2‐(1‐Methyl‐5‐(4‐(trifluoromethyl)phenyl)‐1H‐indol‐3‐yl)ethylphosphonic acid], the inhibition at 10 µM in experiment [4] is below 50%. For the same compound, in experiment [1], the IC50 turned out to be 8.1 nM. In experiment [5], affinity was put at a Ki of 3.1 nM; the “Ki' (ATP-bound enzyme), mixed inhibition model with respect to ATP” value is 14 nM; the “Ki', uncompetitive inhibition model with respect to MVA” value amounted to 10 nM. For `O=P(O)(O)C(Nc1ncnc2sc(-c3cccc(C(F)(F)F)c3)cc12)P(=O)(O)O` [Compound 17], the “MK inhibition, result in words” value in experiment [1] was “Inactive at 10 μM”. In the case of `CC(C)=CCC/C(C)=C/CC/C(C)=C/COP(=O)(O)OP(=O)(O)O` [FPP, farnesyl pyrophosphate, reference compound], the inhibition at 1 µM in experiment [1] (read-out: inhibition of the MK reaction at 1 μM) is 96%. Turning to `C[C@@](O)(CCO)CC(=O)O` [MVA, mevalonic acid], the Km is 24 µM and 40.8 µM in experiment [6]; 37 µM in experiment [3].
